The values below come from ChEMBL document CHEMBL5226363, “Alkaloids and Coumarins with Adiponectin-Secretion-Promoting Activities from the Leaves of Orixa japonica” (J Nat Prod, 2023).

The source made the active and inactive calls. The calls are words filed in the database; no cut-off is given here.

Series [1] deals with Mesenchymal stem cells. The experiment in a line: Cytotoxicity against human BMMSC cells assessed as reduction in cell viability at 10 uM incubated for 72 hrs by CCK8 assay. It is filed as toxicity, cell-based. A general note: Formazan colour is commonly taken as a measure of viable cells.
Series [2] deals with T1, Peroxisome proliferator-activated receptor gamma (Homo sapiens, UniProt P37231).
T1 sequence (P37231 whole entry): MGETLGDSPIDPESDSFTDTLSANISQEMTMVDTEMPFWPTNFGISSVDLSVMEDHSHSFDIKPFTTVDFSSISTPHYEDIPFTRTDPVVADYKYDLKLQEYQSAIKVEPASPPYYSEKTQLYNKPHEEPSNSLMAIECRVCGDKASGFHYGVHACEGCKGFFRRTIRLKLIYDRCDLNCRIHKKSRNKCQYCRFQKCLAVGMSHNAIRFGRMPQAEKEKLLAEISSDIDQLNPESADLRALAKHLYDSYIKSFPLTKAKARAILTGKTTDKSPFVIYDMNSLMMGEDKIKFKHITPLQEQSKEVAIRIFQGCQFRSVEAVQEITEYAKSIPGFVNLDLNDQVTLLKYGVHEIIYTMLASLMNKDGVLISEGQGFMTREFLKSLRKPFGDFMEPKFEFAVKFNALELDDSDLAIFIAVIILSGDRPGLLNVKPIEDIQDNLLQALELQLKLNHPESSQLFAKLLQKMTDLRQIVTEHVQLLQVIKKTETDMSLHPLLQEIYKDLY
As to the kind of experiment: Agonist activity at PPARgamma in human BMMSC cells assessed as promotion of adiponectin secretion by measuring increase in adiponectin level in presence of IDX medium by ELISA. The format is cell-based.

In series [3] the target is T2, Peroxisome proliferator-activated receptor alpha (Homo sapiens) (UniProt Q07869).
T2 sequence (whole entry): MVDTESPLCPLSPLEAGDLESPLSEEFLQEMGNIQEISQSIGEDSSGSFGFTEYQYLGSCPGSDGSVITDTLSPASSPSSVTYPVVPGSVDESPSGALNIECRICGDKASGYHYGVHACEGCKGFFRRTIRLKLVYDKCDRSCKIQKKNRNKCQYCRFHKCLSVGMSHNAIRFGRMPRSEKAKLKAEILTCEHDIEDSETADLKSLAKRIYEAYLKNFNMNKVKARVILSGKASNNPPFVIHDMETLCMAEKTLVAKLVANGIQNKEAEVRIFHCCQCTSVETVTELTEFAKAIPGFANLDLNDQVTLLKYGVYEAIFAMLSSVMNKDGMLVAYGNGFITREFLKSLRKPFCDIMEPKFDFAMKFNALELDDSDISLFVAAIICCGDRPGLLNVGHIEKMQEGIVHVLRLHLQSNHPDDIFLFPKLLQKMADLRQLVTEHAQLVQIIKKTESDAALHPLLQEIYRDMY
The experiment in a line: Displacement of fluormone pan-PPARgreen from GST-tagged human PPARalpha ligand binding domain at 10 uM by LanthaScreen TR-FRET competitive binding assay. (In general: In TR-FRET formats the signal depends on donor and acceptor labels being close together.)

The target in series [4] is T3, Peroxisome proliferator-activated receptor delta (Homo sapiens) (UniProt Q03181).
T3 sequence (whole entry): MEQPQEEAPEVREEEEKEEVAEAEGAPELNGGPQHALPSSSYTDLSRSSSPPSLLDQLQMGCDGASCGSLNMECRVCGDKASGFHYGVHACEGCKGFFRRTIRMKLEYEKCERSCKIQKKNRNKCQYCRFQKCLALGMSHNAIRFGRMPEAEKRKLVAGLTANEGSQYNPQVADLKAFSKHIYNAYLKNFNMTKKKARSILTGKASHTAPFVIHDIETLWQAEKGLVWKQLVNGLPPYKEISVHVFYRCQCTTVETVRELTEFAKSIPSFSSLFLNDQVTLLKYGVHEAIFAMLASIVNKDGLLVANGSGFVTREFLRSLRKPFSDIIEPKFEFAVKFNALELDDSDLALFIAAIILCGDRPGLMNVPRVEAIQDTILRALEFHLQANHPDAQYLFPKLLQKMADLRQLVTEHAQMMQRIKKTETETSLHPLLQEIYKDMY
The experiment in a line: Displacement of fluormone pan-PPARgreen from GST-tagged human PPARdelta ligand binding domain at 10 uM by LanthaScreen TR-FRET competitive binding assay.

The target of series [5] is T4, Oxysterols receptor LXR-beta (Homo sapiens) (UniProt P55055).
T4 sequence (whole entry): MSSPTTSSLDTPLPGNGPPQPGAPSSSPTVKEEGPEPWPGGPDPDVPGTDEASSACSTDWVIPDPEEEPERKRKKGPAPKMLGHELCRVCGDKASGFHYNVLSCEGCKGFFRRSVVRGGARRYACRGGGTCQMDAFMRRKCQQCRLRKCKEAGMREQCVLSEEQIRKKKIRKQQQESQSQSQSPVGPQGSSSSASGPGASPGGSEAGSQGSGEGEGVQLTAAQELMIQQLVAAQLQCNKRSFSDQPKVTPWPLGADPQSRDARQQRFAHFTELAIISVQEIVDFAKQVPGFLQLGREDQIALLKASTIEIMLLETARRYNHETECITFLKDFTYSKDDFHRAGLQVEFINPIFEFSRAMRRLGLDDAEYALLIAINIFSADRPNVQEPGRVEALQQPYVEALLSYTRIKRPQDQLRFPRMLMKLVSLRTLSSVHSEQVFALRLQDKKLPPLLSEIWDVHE
As to the kind of experiment: Agonist activity at GST-tagged LXR-beta ligand binding domain (unknown origin) at 10 uM LanthaScreen TR-FRET Coactivator assay.

For series [6], the target named is T5, Bile acid receptor (Homo sapiens) (UniProt Q96RI1).
T5 sequence (whole entry): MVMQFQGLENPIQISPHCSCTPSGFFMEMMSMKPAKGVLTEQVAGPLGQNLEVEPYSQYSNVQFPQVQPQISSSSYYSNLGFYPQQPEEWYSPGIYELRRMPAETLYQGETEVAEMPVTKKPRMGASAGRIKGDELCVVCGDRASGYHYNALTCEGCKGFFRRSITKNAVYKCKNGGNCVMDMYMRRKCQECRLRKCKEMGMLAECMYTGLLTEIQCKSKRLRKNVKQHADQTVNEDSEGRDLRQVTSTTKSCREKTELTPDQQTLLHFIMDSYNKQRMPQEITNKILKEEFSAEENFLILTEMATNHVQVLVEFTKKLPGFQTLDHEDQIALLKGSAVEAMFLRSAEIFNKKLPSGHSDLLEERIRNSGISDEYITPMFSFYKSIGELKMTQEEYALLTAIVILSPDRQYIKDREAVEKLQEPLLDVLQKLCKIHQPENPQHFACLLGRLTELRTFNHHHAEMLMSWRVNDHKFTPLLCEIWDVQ
The experiment in a line: Agonist activity at GST-tagged FXR ligand binding domain (unknown origin) at 10 uM LanthaScreen TR-FRET Coactivator assay.

Series [7] addresses T1, Peroxisome proliferator-activated receptor gamma. As to the kind of experiment: Displacement of fluormone pan-PPARgreen from GST-tagged human PPARgamma ligand binding domain by LanthaScreen TR-FRET competitive binding assay.
Series [8] deals with T6, Peroxisome proliferator-activated receptor gamma (Homo sapiens) (UniProt P37231).
T6 sequence (whole entry): T1 sequence (P37231 whole entry)
The experiment in a line: Partial agonist activity at GST-tagged PPAR-gamma ligand binding domain (unknown origin) assessed as recruitment of fluorescein-labeled PRIP/RAP250 coactivator peptide at 10 uM by LanthaScreen TR-FRET Coactivator assay. Conditions: filed as partial agonist.

The target in series [9] is T1, Peroxisome proliferator-activated receptor gamma. As to the kind of experiment: Partial agonist activity at GST-tagged PPAR-gamma ligand binding domain (unknown origin) assessed as recruitment of fluorescein-labeled SRC1 coactivator peptide by LanthaScreen TR-FRET Coactivator assay.
For series [10] the target is unchanged. As to the kind of experiment: Partial agonist activity at GST-tagged PPAR-gamma ligand binding domain (unknown origin) assessed as recruitment of fluorescein-labeled SRC3 coactivator peptide by LanthaScreen TR-FRET Coactivator assay.
Series [11] shares this target. As to the kind of experiment: Partial agonist activity at GST-tagged PPAR-gamma ligand binding domain (unknown origin) assessed as recruitment of fluorescein-labeled PRIP/RAP250 coactivator peptide by LanthaScreen TR-FRET Coactivator assay.
Series [12] deals with T6, Peroxisome proliferator-activated receptor gamma (Homo sapiens). The experiment in a line: Partial agonist activity at GST-tagged PPAR-gamma ligand binding domain (unknown origin) assessed as inhibition of pioglitazone-induced recruitment of fluorescein-labeled PRIP/RAP250 coactivator peptide at 10 uM in presence of pioglitazone by LanthaScreen TR-FRET Coactivator assay. Conditions: filed as partial agonist.

The target of series [13] is T1, Peroxisome proliferator-activated receptor gamma. The experiment in a line: Partial agonist activity at PPARgamma in human BMMSC cells assessed as promotion of adiponectin secretion by measuring increase in adiponectin level in presence of IDX medium by ELISA. It is filed as cell-based. For orientation: In an ELISA, binding on a coated surface is turned into a signal by an enzyme label.

Series [14] deals with T6, Peroxisome proliferator-activated receptor gamma (Homo sapiens). The experiment in a line: Partial agonist activity at PPARgamma in human BMMSC cells assessed as increase in size and number of intracellular lipid droplets during adipocyte differentiation in presence of IDX medium at 10 uM by Oil Red O/hematoxylin staining based analysis. The format is cell-based. Conditions: filed as partial agonist.

As to `COc1c(CC=C(C)C)c(=O)n(C)c2ccccc12`, in series [1], the Activity entry is “Non-Toxic”.
On the same count and under the same terms, with `COc1c2ccoc2c(OC)c2oc(=O)ccc12` [ISOPIMPINELLIN] the entry was “Non-Toxic”; with `COc1c2c(cc3ccc(=O)oc13)C[C@@H](C(C)(C)OC(C)=O)O2`, “Non-Toxic”.
Regarding `CC(C)=CCC/C(C)=C/COc1ccc2ccc(=O)oc2c1`, the EC50 (commonly the concentration at which the effect is half-maximal) in series [2] is greater than 30 µM. Besides, in [1], the Activity entry was “Non-Toxic”.
Consider `COc1c(CC(=O)C(C)C)c(=O)n(C)c2ccccc12`, for which the Activity entry in series [1] is on record as “Non-Toxic”.
In the case of `CC(C)=CCOc1c2occc2cc2ccc(=O)oc12` [PENTOSALEN], the Activity entry in series [1] is on record as “Non-Toxic”.
On the same count and under the same terms, with `COc1cc2ccc(=O)oc2c(OC)c1OC/C=C(\C)C/C=C/C(C)(C)OO` the entry was “Non-Toxic”; with `CC(=O)[C@H]1CC[C@@H]2[C@@H]1[C@H](C(C)C)CC[C@]2(C)O`, “Non-Toxic”; with `COC(C)(C)/C=C/C/C(C)=C/COc1ccc2ccc(=O)oc2c1`, “Non-Toxic”.
With `Cn1c(-c2ccccc2)cc(=O)c2c(O)cccc21`, the Activity result in series [1] is “Non-Toxic”.
Same read-out and setting: with `C=C(C)C(CC/C(C)=C/COc1c(OC)cc2ccc(=O)oc2c1OC)OO` (configuration not stated) the entry was “Non-Toxic”; with `C=C(C)C(O)CC/C(C)=C/COc1ccc2ccc(=O)oc2c1` (configuration not stated), “Non-Toxic”; with `C=C(C)C(O)COc1c2occc2cc2ccc(=O)oc12` (configuration not stated), “Non-Toxic”.
On the same count and under the same terms, with `COc1ccc(-c2cc(=O)c3c(O)cccc3n2C)cc1` the entry was “Non-Toxic”; with `COc1c(CC(=O)C(C)C)c(=O)n(C)c2c(OC)c(O)ccc12`, “Non-Toxic”.
Regarding `O=c1ccc2cc3ccoc3cc2o1` [PSORALEN], the Activity result in series [1] was “Non-Toxic”.
Turning to `COc1cc2ccc(=O)oc2c(OC)c1OC/C=C(\C)CCC=C(C)C` [ALTISSIMACOUMARIN D], in series [2], the EC50 is greater than 30 µM. In addition, the Activity result in series [1] is listed as “Non-Toxic”.
On to `COc1c2occc2cc2ccc(=O)oc12` [METHOXSALEN], for which the Activity result in series [1] is on record as “Non-Toxic”.
Regarding `COc1c(CC(=O)C(C)C)c(=O)n(C)c2c(OC)cccc12` [ORIXALONE A], the Activity result in series [1] is “Non-Toxic”.
Turning to `COc1c(CC=C(C)C)c(=O)n(C)c2c(OC)cccc12`, the Activity entry in series [1] is “Non-Toxic”.
Regarding `COc1ccc(-c2cc(=O)c3c(O)c(OC)ccc3n2C)cc1`, in [1], the Activity result is “Non-Toxic”.
In the case of `COc1cc2ccc(=O)oc2cc1OC/C=C(\C)CCC=C(C)C`, the Activity result in series [1] was “Non-Toxic”. Further, the result in [3], in [4], in [5] and in [6] was inactive. For the same molecule, the Ki (commonly the dissociation constant of the complex between target and ligand, obtained from inhibition or displacement) in series [7] worked out at 10.7 µM. Besides, the outcome in [8], in series [12] and in [14] was Active. In addition, the half-maximal effective concentration (EC50) in [9] is greater than 30 µM; in [10], greater than 30 µM; in series [11] it was 17.3 µM; in series [13], 25.8 µM.
Consider `C=C[C@]1(C)C[C@H](OC(C)=O)[C@@H](C(C)(C)O)C[C@H]1C(=C)C`, for which the Activity result in [1] was “Non-Toxic”.
In the case of `COc1ccc(Cl)cc1C(=O)NCCc1ccc(S(=O)(=O)NC(=O)NC2CCCCC2)cc1` [GLYBURIDE], the EC50 in series [2] stood at 2.3 µM.
In the case of `C=C[C@]1(C)C[C@H](O)[C@@H](C(C)(C)O)C[C@H]1C(=C)C`, the Activity result in [1] was “Non-Toxic”.
As for `COc1c(CC=C(C)C)c(=O)[nH]c2c(OC)c(O)ccc12`, the Activity result in series [1] is given as “Non-Toxic”.
Turning to `COc1c2ccoc2cc2oc(=O)ccc12` [BERGAPTEN], the Activity result in series [1] is reported as “Non-Toxic”.
Same read-out and setting: as for `COc1c(CC(=O)C(C)C)c(=O)[nH]c2c(OC)cccc12`, the entry is “Non-Toxic”.
